Tests used:
human 15-LO = biological target: T1, human 15-LO (Homo sapiens, UniProt P16050); experiment: 15-LO inhibition, human enzyme; format: biochemical; settings: linoleic acid as substrate
T1 sequence (P16050 1-662): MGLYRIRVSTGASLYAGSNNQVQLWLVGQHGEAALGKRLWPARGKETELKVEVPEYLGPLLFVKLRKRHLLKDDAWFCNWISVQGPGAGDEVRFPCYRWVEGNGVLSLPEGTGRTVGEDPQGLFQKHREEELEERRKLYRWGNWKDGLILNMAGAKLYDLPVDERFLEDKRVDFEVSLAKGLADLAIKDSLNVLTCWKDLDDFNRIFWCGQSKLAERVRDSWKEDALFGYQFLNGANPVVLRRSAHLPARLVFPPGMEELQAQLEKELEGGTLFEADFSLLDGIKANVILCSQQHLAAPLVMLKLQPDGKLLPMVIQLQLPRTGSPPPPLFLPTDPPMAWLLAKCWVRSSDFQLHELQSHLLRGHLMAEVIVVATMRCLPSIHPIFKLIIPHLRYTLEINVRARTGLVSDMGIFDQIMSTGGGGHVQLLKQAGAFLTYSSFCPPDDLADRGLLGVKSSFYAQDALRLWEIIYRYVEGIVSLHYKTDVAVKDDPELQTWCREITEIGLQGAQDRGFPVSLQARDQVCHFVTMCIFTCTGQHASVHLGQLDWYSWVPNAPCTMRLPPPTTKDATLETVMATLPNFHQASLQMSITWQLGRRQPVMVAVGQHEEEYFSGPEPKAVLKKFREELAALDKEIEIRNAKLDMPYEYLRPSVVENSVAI
Procedure: (§1) The compounds described above are effective inhibitors of 15-LO when evaluated in standard assays routinely utilized to measure 15-LO activity. Specifically, representative compounds were evaluated by the methods described by Auerbach et al., Analytical Biochemistry, 1992;201:375-380. Two in vitro assays were utilized, one utilizing rabbit reticulocyte 15-LO, the other using human 15-LO. Both used linoleic acid as substrate, to enzymatically produce a peroxide oxidation product known as 13(S)-HPODE. N-Benzoyl leucomethylene blue was utilized as a colorimetric reagent for detection and quantification of the peroxide formation. Also, HPLC was utilized to quantify the oxidation following incubation at 4° C. for 10 minutes.
(§2) Data Column 1 gives the concentration of compound required to inhibit 50% of the activity of 15-LO (IC50) when measured by the HPLC method of Auerbach et al. using rabbit enzymes, and data Column 2 gives data from human 15-LO enzyme.

[1] = biological target: T2, rabbit reticulocyte 15-LO (Oryctolagus cuniculus, UniProt P12530); experiment: 15-LO inhibition, rabbit reticulocyte enzyme (HPLC method of Auerbach et al.); format: biochemical; settings: linoleic acid as substrate, incubation at 4° C. for 10 minutes
T2 construct: one utilizing rabbit reticulocyte 15-LO; from tissue; host or cells: rabbit reticulocytes
T2 sequence (P12530 1-663): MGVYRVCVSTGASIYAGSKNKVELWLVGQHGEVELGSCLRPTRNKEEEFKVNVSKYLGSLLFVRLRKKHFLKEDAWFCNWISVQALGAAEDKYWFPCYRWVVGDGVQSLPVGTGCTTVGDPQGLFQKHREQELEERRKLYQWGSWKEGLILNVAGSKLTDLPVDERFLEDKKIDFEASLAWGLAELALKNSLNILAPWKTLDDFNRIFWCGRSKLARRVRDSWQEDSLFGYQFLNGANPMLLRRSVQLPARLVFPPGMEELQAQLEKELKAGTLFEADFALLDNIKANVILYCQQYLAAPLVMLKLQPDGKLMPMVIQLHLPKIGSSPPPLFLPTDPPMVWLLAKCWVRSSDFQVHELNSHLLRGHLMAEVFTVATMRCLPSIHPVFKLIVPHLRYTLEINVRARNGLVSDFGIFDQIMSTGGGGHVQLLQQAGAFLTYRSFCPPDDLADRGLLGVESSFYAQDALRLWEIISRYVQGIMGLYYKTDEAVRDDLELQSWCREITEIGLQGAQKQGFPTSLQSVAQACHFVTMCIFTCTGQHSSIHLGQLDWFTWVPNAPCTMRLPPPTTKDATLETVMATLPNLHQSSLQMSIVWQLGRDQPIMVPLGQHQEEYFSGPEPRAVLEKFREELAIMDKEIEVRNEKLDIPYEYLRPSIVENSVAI
Procedure: as §1, §2

Structure (SMILES) | IC50 (human 15-LO) [nM] | melting point [°C] | IC50 [1] [nM] | inhibition at 10 µM (human 15-LO; at 10 micromolar) [%]
COc1ccc(-c2cc3cc(F)c(F)cc3[nH]2)cc1NC(=S)Nc1cccc(C(=O)O)c1 [Example 6, 3-{3-[5-(5,6-Difluoro-1H-indol-2-yl)-2-methoxy-phenyl]-thioureido}-benzoic acid] | 25 | 221 to 223 | 2 | 
COc1ccc(-c2cc3cc(F)c(F)cc3[nH]2)cc1NC(=S)NCCNC(=O)OC(C)(C)C [Example 38, (2-{3-[5-(5,6-Difluoro-1H-indol-2-yl)-2-methoxy-phenyl]-thioureido}-ethyl)-carbamic acid tert-butyl ester] | 25 | 110 to 113 | 19 | 
COc1ccc(-c2cc3cc(F)c(F)cc3[nH]2)cc1NS(=O)(=O)c1cc(Cl)cc(Cl)c1 [Example 8, 3,5-Dichloro-N-[5-(5,6-difluoro-1H-indol-2-yl)-2-methoxy-phenyl]-benzenesulfonamide] | 73 | 217 to 219 | 19 | 
COc1ccc(-c2cc3cc(Cl)c(Cl)cc3[nH]2)cc1N [Example 18, 5-(5,6-Dichloro-1H-indol-2-yl)-2-methoxy-phenylamine] | 359 | 235 to 237 | 37 | 
COc1ccc(-c2nc3cc(Cl)c(Cl)cc3n2C(=O)OCc2ccccc2)cc1NS(=O)(=O)c1cccs1 [Example 10, 5,6-Dichloro-2-[4-methoxy-3-(thiophene-2-sulfonylamino)-phenyl]-benzoimidazole-1-carboxylic acid benzyl ester] |  | 195 to 198 | 1390 | 81
COc1ccc(-c2cc3cc(F)c(F)cc3[nH]2)cc1NC(=S)Nc1ccc(C(=O)O)cc1 [Example 5, 4-{3-[5-(5,6-Difluoro-1H-indol-2-yl)-2-methoxy-phenyl]-thioureido}-benzoic acid] | 13 | 201 to 203 | 11 | 
COc1ccc(-c2cc3cc(F)c(F)cc3[nH]2)cc1NS(=O)(=O)c1cccc([N+](=O)[O-])c1 [Example 15, N-[5-(5,6-Difluoro-1H-indol-2-yl)-2-methoxy-phenyl]-3-nitro-benzenesulfonamide] | 49 | 228 to 230 | 124 | 
COc1ccc(-c2cc3cc(F)c(F)cc3[nH]2)cc1Nc1cccc(OCc2ccccc2)c1 [Example 53, [5-(5,6-Difluoro-1H-indol-2-yl)-2-methoxy-phenyl]-(3-benzyloxy-phenyl)-amine] | 22 |  | 16 | 
CCOP(=O)(Cc1ccc(NC(=S)Nc2cc(-c3cc4cc(F)c(F)cc4[nH]3)ccc2OC)cc1)OCC [Example 24, (4-{3-[5-(5,6-Difluoro-1H-indol-2-yl)-2-methoxy-phenyl]-thioureido}-benzyl)-phosphonic acid diethyl ester] | 91 | 180 to 182 | 18 | 
COc1ccc(-c2cc3cc(F)c(F)cc3[nH]2)cc1NC(=S)Nc1cc(Cl)cc(Cl)c1 [Example 4, 1-(3,5-Dichloro-phenyl)-3-[5-(5,6-difluoro-1H-indol-2-yl)-2-methoxy-phenyl]-thiourea] | 60 | 203 to 205 | 30 | 
COc1ccc(-c2cc3ccccc3[nH]2)cc1NC(=S)Nc1cc(Cl)cc(Cl)c1 [Example 2, 1-(3,5-Dichloro-phenyl)-3-[5-(1H-indol-2-yl)-2-methoxy-phenyl]-thiourea] | 29 | 199 to 201 | 11 | 
COc1ccc(-c2cc3ccccc3[nH]2)cc1N [Example 1, 5-(1H-Indol-2-yl)-2-methoxy-phenylamine] | 23 | 208 to 209 | 113 | 
COc1ccc(-c2cc3cc(F)c(F)cc3[nH]2)cc1NC(=S)Nc1ccc(F)c(F)c1 [Example 39, 1-[5-(5,6-Difluoro-1H-indol-2-yl)-2-methoxy-phenyl]-3-(3,4-difluoro-phenyl)-thiourea] | 36 | 183 to 186 | 17 | 
COc1ccc(-c2cc3cc(Cl)c(Cl)cc3[nH]2)cc1NC(=S)Nc1cccc(C(=O)O)c1 [Example 19, 3-{3-[5-(5,6-Dichloro-1H-indol-2-yl)-2-methoxy-phenyl]-thioureido}-benzoic acid] | 254 | 216 to 218 | 13 | 
COC(=O)c1ccc(Nc2cc(-c3cc4cc(F)c(F)cc4[nH]3)ccc2OC)cc1 [Example 52, 4-[5-(5,6-Difluoro-1H-indol-2-yl)-2-methoxy-phenylamino]-benzoic acid methyl ester] | 31 | 166 to 170 |  | 

Continued, values first:

IC50 (human 15-LO) [nM] | melting point [°C] | IC50 [1] [nM] | inhibition at 10 µM (human 15-LO; at 10 micromolar) [%] | Structure (SMILES)
19 | 254 to 256 | 10 |  | COc1ccc(-c2cc3cc(F)c(F)cc3[nH]2)cc1NS(C)(=O)=O [Example 7, N-[5-(5,6-Difluoro-1H-indol-2-yl)-2-methoxy-phenyl]-methanesulfonamide]
33 | 191 to 193 | 45 |  | COc1ccc(-c2cc3cc(F)c(F)cc3[nH]2)cc1NC(=S)NCCO [Example 37, 1-[5-(5,6-Difluoro-1H-indol-2-yl)-2-methoxy-phenyl]-3-(2-hydroxy-ethyl)-thiourea]
461 | 190 to 192 | 45 |  | COc1ccc(-c2cc3cc(F)c(F)cc3[nH]2)cc1NCc1cccs1 [Example 12, [5-(5,6-Difluoro-1H-indol-2-yl)-2-methoxy-phenyl]-thiophen-2-ylmethyl-amine]
53 | 210 to 211 | 27 |  | COc1ccc(-c2cc3cc(F)c(F)cc3[nH]2)cc1N [Example 3, 5-(5,6-Difluoro-1H-indol-2-yl)-2-methoxy-phenylamine]
414 | 173 to 175 | 40 |  | COc1ccc(CNc2cc(-c3cc4cc(F)c(F)cc4[nH]3)ccc2OC)cc1 [Example 13, [5-(5,6-Difluoro-1H-indol-2-yl)-2-methoxy-phenyl]-(4-methoxy-benzyl)-amine]
10 | 128 to 130 | 5 |  | COc1ccc(-c2cc3cc(F)c(F)cc3[nH]2)cc1NC(=S)Nc1cccnc1 [Example 41, 1-[5-(5,6-Difluoro-1H-indol-2-yl)-2-methoxy-phenyl]-3-pyridin-3-yl-thiourea]
7 | 211 to 213 | 40 |  | COc1ccc(-c2cc3cc(F)c(F)cc3[nH]2)cc1NS(=O)(=O)c1cccs1 [Example 9, Thiophene-2-sulfonic acid [5-(5,6-difluoro-1H-indol-2-yl)-2-methoxy-phenyl]-amide]
106 |  | 24 |  | COc1ccc(-c2cc3cc(F)c(F)cc3[nH]2)cc1NCc1cccc(O)c1 [Example 11, 3-{[5-(5,6-Difluoro-1H-indol-2-yl)-2-methoxy-phenylamine]-methyl}-phenol]
1260 | 168 to 170 | 113 |  | COC(=O)c1ccc(CNc2cc(-c3cc4cc(F)c(F)cc4[nH]3)ccc2OC)cc1 [Example 14, 4-{[5-(5,6-Difluoro-1H-indol-2-yl)-2-methoxy-phenylamino]-methyl}-benzoic acid methyl ester]
